Results taken from patent US9163035B2, “Melonine bisindole compounds, pharmaceutical compositions, preparation method and use thereof” (Kunming Institute of Botany, The Chinese Academy of Sciences, priority 2009, dated 2015).
Where two headings read alike, the source gives them in different places.

Key:
[1] = tested on: SK-BR-3, human breast cancer cell strain; test: IC50 test on tumor cells (MTT), SK-BR-3; assay type: cell-based; details: SK-BR-3, MTT, 48 h, read-out: Half Inhibitory concentrations (IC50) on human tumor cell strain growth
Experimental: (§1) The melonines A, B, C and D as prepared in Example 1 were separately dissolved with dimethyl sulfoxide (DMSO) to form 1 mg/ml storage solutions, stored away from light for standby use.
(§2) Cisplatin was used as positive control.
(§3) (1) Inoculating cells: preparing cell suspension with culture medium comprising 10% fetal bovine serum (DMEM or RMPI1640), inoculating 96 wells plate with 10000-20000 cells per well (100 μl per well); if adherent cells are needed, inoculation and culture will be conducted 12 h in advance.
(§4) (2) adding a solution of compound to be tested (compound monomer of fixed concentration 40 μM for primary screening, crude extract of 100 μg/ml for primary screening, setting 5 concentrations for gradient repetitive screening for those compounds with a tumor cell growth inhibition rate of about 50% at the concentration for primary screening), final volume of 200 μl per well, and setting 3 repetitive wells for each treatment.
(§5) (3) Developing: culturing at 37° C. for 48 h, adding 20 μl of MTT solution to each well, continually incubating for 4 h, terminating cultivation, carefully discarding supernatant 100 μl to avoid cell lose, adding 20% SDS 100 μl to each well, incubating overnight (37° C.) to completely dissolve crystal.
(§6) (4) colorimetric analysis: selecting 595 nm wavelength, reading light absorption value of each well by […] (Bio-Rad 680), recording results, plotting cell growth curve using concentration as abscissa and cell survival rate as ordinate, and calculating IC50 value of compound using Reed and Muench method.
(§7) (5) Positive control: cisplatin.

[2] = tested on: SMMC7721, human liver cancer cell strain; test: IC50 test on tumor cells (MTT), SMMC7721; assay type: cell-based; details: read-out: Half Inhibitory concentrations (IC50) on human tumor cell strain growth
Experimental: as §1, §2, §3, §4, §5, §6, §7

[3] = tested on: HL-60, human leukemic cell strain; test: IC50 test on tumor cells (MTT), HL-60; assay type: cell-based; details: HL-60, MTT, 48 h, read-out: Half Inhibitory concentrations (IC50) on human tumor cell strain growth
Experimental: as §1, §2, §3, §4, §5, §6, §7

[4] = tested on: PANC-1, human pancreatic cancer cell strain; test: IC50 test on tumor cells (MTT), PANC-1; assay type: cell-based; details: PANC-1, MTT, 48 h, read-out: Half Inhibitory concentrations (IC50) on human tumor cell strain growth
Experimental: as §1, §2, §3, §4, §5, §6, §7

[5] = tested on: A549, human lung cancer cell strain; test: IC50 test on tumor cells (MTT), A549; assay type: cell-based; details: 48 h, read-out: Half Inhibitory concentrations (IC50) on human tumor cell strain growth
Experimental: as §1, §2, §3, §4, §5, §6, §7

[6] = Solubility (qualitative description); assay type: physicochemical
[7] = tested on: human NCI-H460 nude mouse transplanted tumor; test: Activity against nude mouse-transplanted tumors; assay type: in vivo, female BALB/cA nude mice; details: 10 mg/kg intravenous, 3 times per week
Experimental: (§8) Test animals: female BALB/cA nude mice, 35-40 days, body weight 18-22 g, provided by Shanghai Slack, certificate no.: SCXK (Hu) 2007-0005. Divided into four groups:
Negative control group: 12 mice (intravenous injection with physiological saline, 3 times per week).
(§9) Administration group 1: 6 mice, intravenously administered with melonine C, in a dose of 20 mg/kg, 3 times per week.
(§10) Administration group 2: 6 mice, intravenously administered with melonine C, in a dose of 10 mg/kg, 3 times per week.
(§11) Administration group 3: 6 mice, intravenously administered with melonine C, in a dose of 2 mg/kg, 3 times per week.
Transplanted tumors: human NCI-H460 nude mouse transplanted tumor, established by subcutaneously inoculating human NCI-H460 cell strain to female BALB/c nude mice (from Shanghai Slack Co., Ltd.). Inoculated cell number was 3×10^6, the formed transplanted tumor after inoculation was then passaged 3 times in body of nude mice before use. […]
The well-grown tumor tissues were cut into 1.5 mm^3 pieces, inoculated into right-side armpit subcutaneously under sterile condition. The nude mouse transplanted tumore diameter was measured by vernier caliper, and the animals were grouped randomly when the tumore grew to 100-300 mm^3. […]

[8] = Body weight of NCI-H460 tumor-bearing nude mice; assay type: in vivo, female BALB/cA nude mice; details: 20, 10 and 2 mg/kg intravenous, 3 times per week
Experimental: as §8, §9, §10, §11
The well-grown tumor tissues were cut into 1.5 mm^3 pieces, inoculated into right-side armpit subcutaneously under sterile condition. The nude mouse transplanted tumore diameter was measured by vernier caliper, and the animals were grouped randomly when the tumore grew to 100-300 mm^3. The antitumor effects of the compounds to be tested were observed by measuring tumor diameters. The number of measuring tumore diameters was 3 per week, and the mice were weighed simultaneously when each measurement was conducted. Melonine C was intravenously administered in doses of 20 mg/kg, 10 mg/kg, 2 mg/kg, separately, 3 times per week.

[9] = Acute toxicity test, mice; details: mouse, in vivo, intravenous, tail vein injection
Experimental: (§12) Animal lines: healthy mice, rats. Age was 7-9 weeks. In the same batch of tests, the initial body weight of mice or rats should not be greater or less than the average body weight by 20%.
(§13) Administration route: tail vein injection for both rats and mice.
(§14) Measurement of median lethal dose (LD50):
Maximum tolerated dose (MTD) test method: MTD refers to a dose that causes significant toxic reaction without death in animals.
(§15) Test observation: the observation was performed for one week after administered with the drug to be tested, the time of appearance and disappearance of various toxic reactions was carefully observed and recorded for each animal. The observation and recording were performed twice on the day of administering the drug to be tested, then once per day in the following days. The contents to be observed and recorded include skin, mucous membrane, coat color, eyes, respiration, circulation, behaviors of autonomic and central nervous systems, etc. Before the drug to be tested was administered, one week after the drug to be tested was administered, when the animal died, and when the test was ended, the animals were weighed to get their body weights. All animals, including dead or executed animals, were subjected to autopsy, and histopathologic examination was performed for organs with abnormal autopsy results.

[10] = Acute toxicity test, rats; details: rat, in vivo, intravenous, tail vein injection
Experimental: as §12, §13, §14, §15

[11] = Acute toxicity test, observation and autopsy; assay type: in vivo; details: tail vein injection, immediately after dosing
Experimental: as §12, §13, §15

SMILES | IC50 [1] | IC50 ([2]; 48 h) | IC50 [3] | IC50 [4] | IC50 [5] | IC50 ([1]; Homo sapiens) | IC50 ([2]; Homo sapiens, SMMC-7721, 48 h) | IC50 ([3]; Homo sapiens) | IC50 ([4]; Homo sapiens) | IC50 ([5]; Homo sapiens) | solubility in acetone [6] | solubility in methanol [6] | solubility in water [6] | solubility in chloroform ([6]; chloroform) | relative tumor proliferation rate T/C (%) [7] | effect on the body weight [8] | LD50 at 1 week ([9]; mice) | MTD at 1 week ([9]; printed on the mice line, read-out: MTD (maximum tolerated dose)) | LD50 at 1 week [10] | toxic reactions observed [11]
N.N.[Cl][Pt][Cl] [Cisplatine, Cisplatin, reference compound] | 22.5 µM | 14.1 µM | 0.75 µM | 19.5 µM | 26.5 µM | – | – | – | – | – | – | – | – | – | – | – | – | – | – | –
CCC12CCCN3CCc4c(n(c5ccccc45)C(c4ccc(O)c5c4N=C4CCC6(CC)CCCN7CCC45C76)C1)C32 (centres unmarked) [Melonine D, melonine D] | – | – | – | – | – | 23.2 µM | 18.1 µM | 2.77 µM | 23.4 µM | 11.1 µM | slightly soluble | Easily soluble | slightly soluble | – | – | – | – | – | – | –
CCC12CCCN3CCc4c(n(c5ccccc45)C(c4cc5c(cc4O)N4CCCC6(CC)CCCN7CCC5(OC)C746)C1)C32 (centres unmarked) [Melonine B, melonine B] | – | – | – | – | – | 7.78 µM | 7.4 µM | 2.53 µM | 14.5 µM | 14.7 µM | slightly soluble | Easily soluble | slightly soluble | – | – | – | – | – | – | –
CCC12CCCNC3=C(C(=O)C(=O)C=C3C3CC4(CC)CCCN5CCc6c(n3c3ccccc63)C54)C3=C1N(CCC2)CC3 (centres unmarked) [Melonine A, melonine A] | – | – | – | – | – | 15.4 µM | 11.5 µM | 2.84 µM | > 40 µM | 22.1 µM | Easily soluble | Easily soluble | slightly soluble | Easily soluble | – | – | – | – | – | –
CCC12CCCN3CCc4c(n(c5ccccc45)C(c4ccc(O)c5c4NC4CCC6(CC)CCCN7CCC54C76)C1)C32 (centres unmarked) [Melonine C, melonine C] | – | – | – | – | – | 3.63 µM | 2.73 µM | 0.66 µM | 3.77 µM | 3.01 µM | slightly soluble | easily soluble | slightly soluble | – | 56.41% | no significant effect | 32 mg/kg | 22 mg/kg | 20 mg/kg | accelerated breathing, ataxia, convulsions, or even died
